Values quoted from earlier work in US6689455B2, “Method of producing hexagonal ferrite and magnetic recording medium using said hexagonal ferrite” (Fuji Photo Film Co., Ltd., priority 2001, dated 2004).

Conditions: for pKa: value in parentheses after the compound name, acetic acid: 2 mol/l aqueous solution; for Organic matter pKa value: organic matter used to treat the ferrite powder, Tables 1 and 2; for pKa1: first dissociation of dicarboxylic acids

Structure (SMILES)	pKa	Organic matter pKa value	pKa1
O=S(=O)(O)c1ccccc1 [benzenesulfonic acid]	2.55	–	–
O=C(NO)c1ccccc1 [benzohydroxamic acid]	2.3	–	–
O=P([O-])([O-])CN(CCN(CCN(CP(=O)([O-])[O-])CP(=O)([O-])O)CP(=O)([O-])O)CP(=O)([O-])O.[Na+].[Na+].[Na+].[Na+].[Na+].[Na+].[Na+] [heptasodium diethylenetriamine-pentamethylene phosphonate]	–	1.8	–
O=P(O)(O)Oc1ccccc1 [phenoxyphosphonic acid]	1.95	2.0	–
O=P(O)(O)c1ccccc1 [phenylphosphonic acid]	1.8	1.8	–
O=C(O)c1ccccc1C(=O)O [phthalic acid]	–	–	2.75
NS(=O)(=O)O [sulfaminic acid]	1.65	–	–
O=C(O)c1ccc(C(=O)O)cc1 [terephthalic acid]	–	–	3.54
